Experimental data: PMC9629855, “Development of ASIC1a ligand-gated ion channel drug screening assays across multiple automated patch clamp platforms” (Frontiers in Molecular Neuroscience, 2022)
Several values for one entry are separate records, joined by “and”; a condition that tells them apart may be missing. Identical values can stand only once.

Key:
Design in all cases: host or cells: CHO (tetracycline-inducible)
hASIC1a [1] = biological target: T1, hASIC1a (Homo sapiens, UniProt P78348); experiment: cell-based; details: pH 6.5 agonist, QPatch 48 single hole
T1 sequence (P78348 1-528): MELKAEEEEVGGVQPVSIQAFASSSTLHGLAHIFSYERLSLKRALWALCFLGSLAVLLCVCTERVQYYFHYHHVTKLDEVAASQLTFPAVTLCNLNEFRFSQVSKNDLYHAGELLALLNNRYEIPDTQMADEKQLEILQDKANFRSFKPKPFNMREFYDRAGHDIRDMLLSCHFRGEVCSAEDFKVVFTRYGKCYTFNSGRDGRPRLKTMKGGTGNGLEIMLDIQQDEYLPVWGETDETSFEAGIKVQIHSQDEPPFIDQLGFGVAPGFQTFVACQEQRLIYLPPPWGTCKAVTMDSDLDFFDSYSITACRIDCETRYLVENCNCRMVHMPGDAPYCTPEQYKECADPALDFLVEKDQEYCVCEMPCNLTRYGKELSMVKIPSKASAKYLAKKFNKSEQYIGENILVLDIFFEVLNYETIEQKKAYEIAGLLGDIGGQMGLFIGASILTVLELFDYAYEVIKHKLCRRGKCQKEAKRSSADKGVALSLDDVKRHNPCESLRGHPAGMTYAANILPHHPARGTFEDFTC
Experimental: (§1) CHO hASIC1a cells were cultured according to vendor instructions (B-SYS GmbH) and HEK cells using standard in-house methods. Both cell lines were harvested using optimized protocols and re-suspended in serum-free media (Gibco CHO-S-SFM from Thermo Fisher Scientific for CHO cells, and Ex-Cell 302 from Merck Sigma-Aldrich for HEK cells) to obtain a suspension of cells with smooth membranes and little debris, before transfer to the automated cell hotel consisting of a 60 ml plastic container (Sophion SB2050) and a magnetic stir bar to prevent cell clumping. An aliquot of cells is then aspirated into a 1 ml microcentrifuge tube and spun down (typically 150 g for 2.5 min) and the supernatant discarded before a user-defined volume of external solution is added by the robot and the cells re-suspended to achieve the desired final cell suspension density before application to primed QPlates. Cell capture, sealing and whole-cell access was achieved using optimized QPatch protocols before currents were recorded using a holding potential of −60 mV. […] Cells were washed three times with external pH 7.3 solution (5 μl) between applications of activating acidic solution to establish a stable ASIC1a current baseline. […] Each concentration of reference compound was applied to each cell before (i.e., during each pH 7.3 application period) and during each pH stimulus (IC50 mode). Thus, each concentration of test compound was pre-incubated with cells for at least 2 min before, and then during each acidic solution challenge, before wash-off in a neutral pH 7.3 solution that contained the next concentration of the same compound. Cells were allowed at least 2 min between applications of acidic solution to enable ASIC1a receptors to recover from desensitization.
(§2) Concentration-response xC50 curves from Patchliner and QPatch 48 experiments were calculated by plotting %inhibition (antagonists) or activation (pH) data against concentration in Prism software (GraphPad), using the variable sigmoidal dose-response function to fit the Hill equation with theoretical minimum block of 0% and maximum block of 100% and a free constant for Hill slope.
In addition, this protocol is designed to avoid tachyphylaxis associated with a more acidic pH stimulus, and it allows the development of a ligand-gated ASIC1a channel assay that can distinguish between agonists, partial agonists and antagonists. […] Compounds were tested using the cumulative concentration-response assay format shown in Figure 5A, which includes a 2 min pre-incubation period for each concentration to allow test samples to reach and equilibrate with their binding site(s) in the pore or large extracellular binding domain of ASIC1 receptor trimers. Agonist effects can also be detected during this period as membrane current data is recorded after every liquid addition. […] Mean inhibition data for each test sample is plotted against Log[compound] and fit with a concentration-response function.

hASIC1a [2] = biological target: T1, hASIC1a; experiment: SyncroPatch 384i APC, CHO hASIC1a, puff / stacked puff application; assay type: cell-based; details: pH 6.5
Experimental: CHO cells expressing ASIC1a (Charles River) were induced using tetracycline 3–6 h prior to dissociation into a cell suspension.
For recordings of stability and pharmacology using a bolus or “puff” application of ligand, 5 μl of the agonist solution was aspirated and applied to the cell; liquid dispense speed can be set between 1 and 100 μl/s, and a setting of 40 μl/s was used in these experiments. Following agonist addition, 50 μl of the total 90 μl volume in each well is then taken up by the tip to remove most of the agonist solution from the cell. […] For stability experiments, pH 6.5 was applied to each cell followed by a wash with pH 7.4 solution and a wait of 140 s to remove agonist and reverse any desensitization, before a second application of pH 6.5 was made. This sequence was repeated 6–7 times on each cell. For pharmacology experiments, ASIC1a responses were evoked 3 times by pH 6.5 application followed by pre-incubation in the inhibitor for 140 s, after which the inhibitor was co-applied with a pH 6.5 stimulus. Cumulative concentration responses were obtained for each well using 3–4 incrementing concentrations of inhibitor. Concentration response curves for each well were constructed and mean ± S.E.M values for IC50 are given.
To assess the pH sensitivity of ASIC1a responses, pipette tips were loaded with 5 μl of pH 7.4 wash solution followed by 5 μl of activating extracellular solution (pH 7.2 to 4.8). For each sweep, the baseline current was recorded for 1 s in pH 7.4 control solution before the application of the 5-μl activating solution, and then the pH 7.4 wash solution was dispensed with a delay of 1 s to allow for recording of channel opening and desensitization in the presence of ligand before ligand wash-off. Application of the wash solution was followed by aspiration of liquid (50 μl of 90 μl total volume) from each well after a delay of 4 s, before a second wash step with pH 7.4 was performed prior to the application of the next activating pH (interval between stimuli 140 s). Each well received an addition of pH 6.5 solution followed by application of a test pH, and this sequence was repeated a second time to enable data from each cell to be normalized to the control pH 6.5 addition. The pH response curve was constructed across multiple wells with replicates of 48. Pharmacology experiments were performed as described above in “puff” application.
Concentration response curves were fit using a Hill Equation. Statistical comparison of IC50 values for Benzamil was performed using a Student’s t test in Igor Pro 8 (Wavemetrics). […] Z-Factor (Z‘) is calculated using the equation: […]

hASIC1a [3] = biological target: T1, hASIC1a; experiment: QPatch 48 APC, CHO hASIC1a, multi-hole (10 hole X-plate) recordings; assay type: cell-based; details: multi-hole recordings, QPatch 48
Experimental: as §1, §2
Before employing a more efficient multi-hole assay it is important to establish that this variant of the APC whole-cell recording format returns the same biophysics and pharmacology as single cell recordings. To this end we ran some of the reference compounds detailed above in 10 hole “X-plate” mode on the QPatch 48.

[4] = 1X single hole chip, Stacked Puff
[5] = 4X multi-hole chip, Stacked Puff

Row | Compound | Hill slope (hASIC1a [1]) | Hill slope (hASIC1a [2]; 1X single hole chip, Puff) | Hill slope (hASIC1a [2]; [4]) | Hill slope (hASIC1a [2]; 4X multi-hole chip, Puff) | Hill slope (hASIC1a [2]; [5]) | Hill slope (Hn) (hASIC1a [3]) | IC50 (hASIC1a [1]; 2 min pre-incubation, read-out: IC50 potency) | IC50 (hASIC1a [2]; 1X single hole chip, Puff) | IC50 (hASIC1a [2]; [4]) | IC50 (hASIC1a [2]; 4X multi-hole chip, Puff) | IC50 (hASIC1a [2]; [5]) | IC50 (hASIC1a [3]; read-out: IC50)
1 | N=C(N)NC(=O)c1nc(Cl)c(N)nc1N [Amiloride] | 0.9 | 1.20 ± 0.05 | 1.39 ± 0.02 | 1.19 ± 0.02 and 1.14 ± 0.01 | 1.24 ± 0.02 | 0.91 | – | – | – | – | – | –
2 | NC(=NCc1ccccc1)NC(=O)c1nc(Cl)c(N)nc1N [Benzamil] | 1.1 | 1.07 ± 0.02 | 1.26 ± 0.03 | 1.18 ± 0.03 and 1.12 ± 0.02 | 1.12 ± 0.02 | 1.18 | 4.66 µM | 1370 nM | 2480 ± 180 nM | 1430 nM and 1470 nM | 2200 ± 80 nM | 3.49 µM
